pIC50: −log10 of the molar value.
Key:
[1] = target: GIRK1/4 (Homo sapiens (Human), UniProt P48544+P48549); test: GIRK1/4 activity assay (Quattro/IonWorks population patch clamp, inward potassium current); format: cell-based; settings: GIRK1/4 HEK293 stable cells; current inhibition normalized to DMSO-only control
Description: The GIRK1/4 activity of a compound according to the present invention was assessed by the following in vitro method.
• a. External buffer: 10 mM NaCl, 50 mM Na Gluconate, 80 mM K Gluconate, 1.8 mM CaCl2, 1 mM MgCl2, 10 mM HEPES, 10 mM Glucose, pH 7.4; osmolarity 300-310 Osm/L. • b. Internal buffer: 30 mM KCl, 100 mM K Gluconate, 1 mM MgCl2, 10 mM HEPES, 1 mM EGTA, 10 mM NaCl, pH 7.2; osmolarity 284-292 Osm/L. Compounds: • c. Prepare seven-fold compound dilution series (10 mM to 20 uM) in 100% DMSO, in 384-well polypropylene plates. • d. Propafenone (Sigma Aldrich, catalog number P4670) was used as a positive control and DMSO for neutral control • e. Resuspend 1 μl of compounds in DMSO into 66.7 μl external buffer in 384-well polypropylene plate and load into Plate 1 section of Molecular Devices Quattro® Quattro Setup: • f. Load 384-well Population Patch Plate (Molecular Devices #9000-0902) into Quattro • g. Fill Quattro F-soak trough with 20% DMSO and 50% EtOH • h. Fill Quattro buffer trough with external buffer • i. Attach internal buffer flask to Quattro internal buffer tubing • j. Attach PBS (Phosphate Buffered Saline, minus Ca^++ and Mg^++, pH7.4) bottle to F-head & E-head wash on Quattro Antibiotic: • k. Resuspend 5.1-5.8 mg amphotericin B (Sigma Aldrich, catalog number A2411) in 175 μl DMSO • l. Add the resulting solution to 50 mL internal buffer and attach to antibiotic tubing port on Quattro Cells: • m. Use GIRK1/4 HEK293 stable cells (obtained from ChanTest, 14656 Neo Parkway, Cleveland, Ohio 44128) grown to ˜80% confluency in the following cell culture medium: DMEM containing 10% (v/v) Fetal Bovine Serum, Penicillin/Streptomycin (at “IX” concentration from a 100× stock), 0.5 mg/mL G418 and 0.1 mg/mL Zeocin. • n. Detach cells using Detachin (Genlantis, 11011 Torreyana, San Diego, CA 92121), washed with PBS (minus Ca^++ and Mg^++) and resuspend in external buffer (5 mL final volume at 2.0-2.1×10^6 cells/mL) • o. Load into cell trough of Quattro Assay Protocol:
Quattro was controlled using IonWorks v2 software to perform the following steps: • p. Added 3.5 μl cells plus 3.5 μl external buffer to wells of Quattro Patch Plate® • q. Circulated amphotericin B and internal buffer onto cells • r. Applied the following voltage protocol: Pulse 1: 15 mV for 300 milliseconds (ms), followed by Pulse 2: −120 mV for 400 ms, then Pulse 3: −15 mV for 400 ms, and finally Pulse 4: −120 mV to 40 mV over 500 ms (this is a voltage ramp). • s. Measured magnitude of inward potassium current at time point between 1200-1220 ms from start of Pulse 1 (i.e., during the voltage ramp phase). • t. Added 3.5 μl of diluted compounds (or DMSO) to wells and repeated […] (final compound concentrations are 50 uM to 0.1 uM, and each concentration was tested in quadruplicate—i.e., in 4 separate wells). • u. The difference between current magnitude pre vs. post-compound gave a measure of GIRK1/4 inhibition. Data Analysis:
IC50 values were calculated by plotting the percentage of current inhibition (normalized to the DMSO-only control) as a function of compound concentration using standard data analysis software.

[2] = Pharmacokinetic properties in rats (IV and PO, whole blood LC-MS/MS); format: in vivo, Spargue Dawley/CD, male; settings: for Rat AUC0-24 h 3 mg/kg: 3 mg/kg PO, suspension; for Rat AUC0-24 h 3 mg/kg / clearance: whole blood; for clearance: male, Sprague Dawley/CD, rat, IV dosing (0.3-1 mg/kg), CL = Dose/AUCinf; for Rat F: oral bioavailability, PO 3 mg/kg vs IV
Description: The pharmacokinetic properties of the compounds in rats were assessed by the following in vivo studies as described below.
At least four days before first drug administration, the rats (250-350 g) were anesthetized and, under aseptic conditions, catheters were surgically implanted into the left and right jugular veins (one for blood collection and the other one for intravenous injection). The catheters were exteriorized and fixed at the neck. For analgesic treatment, animals received analgesics before surgery and subsequently twice at appropriate times after surgery. The freely-moving animals equipped with catheters are kept individually in Macrolon cages, with free access to food and water throughout the experiment. After a recovery phase of at least 4 days, a single test compound was administered intravenously or orally, based upon the individual body weights.
The test articles were administered as solution in NMP:PEG 200 (10:90 v/v). Test articles where no solution can be obtained were rejected and not used in discrete or cassette dosing.
The test article were administered as suspension in MC:Tween 80:water (0.5:0.1:99.4 w/v/v).
The test article was administered as solution and as a bolus injection or as short I.V. infusion (30 seconds) via the left jugular vein catheter to conscious rats. The dose volume was 0.5 mL/kg body weight.
The test article was administered as a solution or suspension into the esophagus via a gavage tube to conscious rats. The dose volume was 5 mL/kg body weight. The exact start time of dosing and exact dose volume was noted.
Blood samples (20 μL) were collected from the right jugular vein catheter of cannulated animals (if JV catheter becomes non patent during the PK experiment (i.e., after dosing), blood can exceptionally be collected by tail vein puncture but it must be clearly specified into the in-life observations and data study rep) in tubes containing 10% of blood of 2% W/V K2 EDTA (2.0 mg/mL) at the different time intervals. Blood was collected following IV dosing at 0.083, 0.25, 0.5, 1, 2, 4, 7 and 24 h post dose. Blood was collected following PO dosing: 0.25, 0.5, 1, 2, 4, 7 and 24 h post dose.
The concentrations of compounds in whole blood were quantified using a liquid chromatography/mass spectrometry (LC-MS/MS) assay. 20 μL of each blood sample were precipitated with 100 μL of acetonitrile containing generic internal standards (carbamazepine/telmisartan/verapamil; c=50 ng/mL). The samples were vortexed thoroughly then centrifuged (5 min, 4° C.). The supernatant (80 μL) was transferred to a clean 96-well plate and mixed with 80 μL of water.
The samples were injected (1 to 20 μL) onto suitable analytical columns, using various isocratic methods and flow rates. Mobile phases typically consisting of 0.1% formic acid in water (solvent A) and 0.1% formic acid in acetonitrile (solvent B) with additional modifiers, if needed. Compounds and the internal standards were eluted at various retention times. The HPLC systems were interfaced to mass spectrometers. MS/MS analyses were carried out using electrospray ionization (ESI), typically in the positive ionization mode. Compounds and the internal standards were monitored using multiple reaction monitoring (MRM).
The standard curves employed for sample quantitation ranged over several log units. The lower limit of quantitation (LLOQ) in blood was determined and used as cutoff for the analytical sensitivity. Known amounts of the compounds were spiked into blood to create quality control samples with six known concentrations in singlets. The accuracy of the in vivo blood sample concentration determination was considered acceptable when the intra-assay accuracies obtained for the quality control samples were within 70% to 130% of the expected concentrations. Subsequently, from the time concentration data, pharmacokinetic parameters were calculated by non-compartmental regression analyses using an in house fitting program. […]

[3] = Pharmacokinetic study in male Beagle dogs; format: in vivo

Sequence of GIRK1/4 (P48549 whole entry): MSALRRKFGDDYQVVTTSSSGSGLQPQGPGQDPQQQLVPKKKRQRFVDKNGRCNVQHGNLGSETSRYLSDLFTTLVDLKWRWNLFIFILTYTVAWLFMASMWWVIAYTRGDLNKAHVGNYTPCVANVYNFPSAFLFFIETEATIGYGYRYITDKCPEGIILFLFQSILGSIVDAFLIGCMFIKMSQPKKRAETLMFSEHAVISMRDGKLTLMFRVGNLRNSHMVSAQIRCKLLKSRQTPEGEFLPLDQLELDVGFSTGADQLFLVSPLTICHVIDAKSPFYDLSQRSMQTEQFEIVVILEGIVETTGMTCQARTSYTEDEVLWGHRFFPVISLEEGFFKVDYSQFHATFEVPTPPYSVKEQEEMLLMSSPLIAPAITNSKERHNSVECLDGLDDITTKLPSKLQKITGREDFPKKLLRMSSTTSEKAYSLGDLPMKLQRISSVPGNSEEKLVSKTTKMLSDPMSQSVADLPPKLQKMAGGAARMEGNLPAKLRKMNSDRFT
Sequence of GIRK1/4 (P48544 whole entry): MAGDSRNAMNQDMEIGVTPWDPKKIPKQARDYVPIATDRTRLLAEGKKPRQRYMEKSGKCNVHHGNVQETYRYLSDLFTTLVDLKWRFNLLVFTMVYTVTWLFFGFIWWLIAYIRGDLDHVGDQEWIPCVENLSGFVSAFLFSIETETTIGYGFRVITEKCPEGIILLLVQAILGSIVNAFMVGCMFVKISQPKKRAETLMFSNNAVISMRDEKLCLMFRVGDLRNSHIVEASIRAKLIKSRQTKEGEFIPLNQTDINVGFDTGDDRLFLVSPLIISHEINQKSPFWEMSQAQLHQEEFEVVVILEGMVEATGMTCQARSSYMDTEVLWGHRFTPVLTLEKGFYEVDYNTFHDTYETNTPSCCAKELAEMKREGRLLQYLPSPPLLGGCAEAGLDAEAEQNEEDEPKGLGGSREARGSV

Compound | pIC50 [1] | Rat AUC0-24 h 3 mg/kg [2] [nMh] | clearance [2] [mL/min/kg] | Rat F [2] [%] | AUC0-24 h ([3]; 0.3 mg/kg IV solution and 1 mg/kg PO suspension) [nMh] | clearance ([3]; dog, in vivo, 0.3 mg/kg IV as a solution, read-out: Clearance (Cl)) [mL/min/kg] | bioavailability ([3]; dog, in vivo, 1 mg/kg PO as a suspension vs 0.3 mg/kg IV, read-out: Oral bioavailability (F)) [%]
CNC(=O)CCOc1ncc(Cl)c2c1c(=O)cc(C)n2-c1c(Cl)cc(OCCO)cc1Cl [Example 1, 3-((8-Chloro-1-(2,6-dichloro-4-(2-hydroxyethoxy)phenyl)-2-methyl-4-oxo-1,4-dihydro-1,6-naphthyridin-5-yl)oxy)-N-methylpropanamide] | 7.05 | 3270 | 20.2 | 71 | 5270 | 5.5 | 87
CNC(=O)COc1ncc(Cl)c2c1c(=O)cc(C)n2-c1c(Cl)cc(OCCO)cc1Cl [Example 5, 2-((8-Chloro-1-(2,6-dichloro-4-(2-hydroxyethoxy)phenyl)-2-methyl-4-oxo-1,4-dihydro-1,6-naphthyridin-5-yl)oxy)-N-methylacetamide] | 7.22 | 2336 | 14.6 | 33 | – | – | –
CNC(=O)CCOc1ncc(Cl)c2c1c(=O)cc(C)n2-c1c(Cl)cc(OC[C@@H](C)O)cc1Cl [Example 6, (R)-3-((8-Chloro-1-(2,6-dichloro-4-(2-hydroxypropoxy)phenyl)-2-methyl-4-oxo-1,4-dihydro-1,6-naphthyridin-5-yl)oxy)-N-methylpropanamide] | 6.89 | 3570 | 21.6 | 82 | – | – | –
CNC(=O)[C@H](C)COc1ncc(Cl)c2c1c(=O)cc(C)n2-c1c(Cl)cc(OCCO)cc1Cl [Example 7, (R)-3-((8-Chloro-1-(2,6-dichloro-4-(2-hydroxyethoxy)phenyl)-2-methyl-4-oxo-1,4-dihydro-1,6-naphthyridin-5-yl)oxy)-N,2-dimethylpropanamide] | 7.15 | 4410 | 13.6 | 61 | – | – | –
CC(=O)NCCOc1ncc(Cl)c2c1c(=O)cc(C)n2-c1c(Cl)cc(OCCO)cc1Cl [Example 9, N-(2-((8-chloro-1-(2,6-dichloro-4-(2-hydroxyethoxy)phenyl)-2-methyl-4-oxo-1,4-dihydro-1,6-naphthyridin-5-yl)oxy)ethyl)acetamide] | 7.10 | 1460 | 24.2 | 40 | – | – | –
CNC(=O)[C@@H](O)COc1ncc(Cl)c2c1c(=O)cc(C)n2-c1c(Cl)cc(OCCO)cc1Cl [Example 13, (S)-3-((8-Chloro-1-(2,6-dichloro-4-(2-hydroxyethoxy)phenyl)-2-methyl-4-oxo-1,4-dihydro-1,6-naphthyridin-5-yl)oxy)-2-hydroxy-N-methylpropanamide] | 7.22 | 2410 | 18.4 | 55 | – | – | –
CNC(=O)CCOc1ncc(Cl)c2c1c(=O)cc(C)n2-c1c(Cl)cc(OCC2(O)COC2)cc1Cl [Example 15, 3-((8-Chloro-1-(2,6-dichloro-4-((3-hydroxyoxetan-3-yl)methoxy)phenyl)-2-methyl-4-oxo-1,4-dihydro-1,6-naphthyridin-5-yl)oxy)-N-methylpropanamide] | 6.49 | 1290 | 32.8 | 46 | – | – | –
CNC(=O)COc1cc(Cl)c(-n2c(C)cc(=O)c3c(OCC(N)=O)ncc(Cl)c32)c(Cl)c1 [Example 17, 2-(4-(5-(2-Amino-2-oxoethoxy)-8-chloro-2-methyl-4-oxo-1,6-naphthyridin-1(4H)-yl)-3,5-dichlorophenoxy)-N-methylacetamide] | 6.60 | 2310 | 31.7 | 73 | – | – | –
CC(=O)NCCCc1ncc(Cl)c2c1c(=O)cc(C)n2-c1c(Cl)cc(OCCO)cc1Cl [Example 19, N-(3-(8-Chloro-1-(2,6-dichloro-4-(2-hydroxyethoxy)phenyl)-2-methyl-4-oxo-1,4-dihydro-1,6-naphthyridin-5-yl)propyl)acetamide] | 7.30 | 1290 | 27.9 | 46 | – | – | –
Cc1cc(=O)c2c(CCS(C)(=O)=O)ncc(Cl)c2n1-c1c(Cl)cc(OCCO)cc1Cl [Example 20, 8-Chloro-1-(2,6-dichloro-4-(2-hydroxyethoxy)phenyl)-2-methyl-5-(2-(methylsulfonyl)ethyl)-1,6-naphthyridin-4(1H)-one] | 7.30 | 2407 | 19.8 | 44 | – | – | –
Cc1cc(=O)c2c(CCCS(C)(=O)=O)ncc(Cl)c2n1-c1c(Cl)cc(OCC(C)(C)O)cc1Cl [Example 22, 8-Chloro-1-(2,6-dichloro-4-(2-hydroxy-2-methylpropoxy)phenyl)-2-methyl-5-(3-(methylsulfonyl)propyl)-1,6-naphthyridin-4(1H)-one] | 6.72 | 1360 | 23.6 | 37 | – | – | –
